Series [1] deals with collagenase. The experiment in a line: collagenase production by chondrocytes (ELISA). The series is classed as cell-based, bovine. The conditions noted are these: summary statement. How it is done:
The effect of orthovanadate and N-acetylcysteine on fos, jun and collagenase expression were examined. Bovine articular chondrocytes were isolated and plated as previously described (Kandel R. A. et al. Biochim. Biophys. Acta. 1053, 130-134, 1990). In order to determine the effect of orthovanadate on IL 1 and PMA (phorbol ester) induced responses, chondrocytes were incubated with orthovanadate (100 μM) for 2 hours before stimulation with IL 1 (10 ng/ml) or PMA ([…]). Collagenase production was determined by incubating chondrocytes for 24 hours with IL 1 or PMA and the cell conditioned medium was assayed for collagenase activity using an ELISA procedure as described previously (Kandel et al. supra). PLA2 activity was measured by incorporating ^3 H-arachidonic acid (^3 H-AA) into the cells and then incubating the cells with medium containing 1 mg/ml BSA, either alone or in the presence of IL 1 or PMA, for 10 min. as previously described (Conquer, J. A. […], Biochim. Biophys. Acta. 1134, 1-6). The amount of ^3 H-AA liberated into the supernatant was determined. To measure PGE2 production, chondrocytes were incubated for 6 hours in Ham's F12 medium, either alone or with IL 1 or PMA. The supernatant was analyzed by RIA using an antibody specific for PGE2 (Dr. S. A. Jones, Mount Sinai Hospital, Toronto, Canada). In order to examine the expression of c-fos and c-jun, chondrocytes were incubated for 1 hour in the presence of IL-1, PMA or AA (3 μM). Chondrocytes were washed in PBS and the total RNA extracted as previously described (Cruz. et al, 1991, Biochem. J. 277, 327-330). RNA samples were run on formaldehyde agarose gels and transferred to nylon membrane for northern analysis using cDNA probes for c-fos and c-jun.
(In general: ELISA stands for enzyme-linked immunosorbent assay.)

The test system of the next series is fos. Put plainly: fos / c-fos mRNA expression in chondrocytes (Northern blot). The series is classed as cell-based, bovine. Conditions: in the presence of IL 1; N-acetylcysteine 20 mM for 20 min. How it is done:
(§1) The cytokine interleukin 1 (IL 1) has been used to identify the intermediate second messengers which regulate the expression of fos and jun.
In order to elucidate this possibility, the effect of DPI on fos and jun mRNA levels induced by IL 1 was investigated. RNA from chondrocytes treated with IL 1 in the presence and absence of DPI were analyzed by Northern blot analysis using either fos or collagenase cDNA probes.
Since superoxides are rapidly converted to hydrogen peroxide in the cell by superoxide dismutase, whether hydrogen peroxide could mimic the effect of IL 1 in the induction of fos expression was investigated. RNA was extracted from chondrocytes (Kandel et al. supra) treated with H2 O2 for 30, 60 and 90 minutes and examined by Northern blot analysis using a fos cDNA probe.
Bovine articular chondrocytes were isolated and plated as previously described (Kandel R. A. et al. Biochim. Biophys. Acta. 1053, 130-134, 1990). […] The amount of ^3 H-AA liberated into the supernatant was determined. To measure PGE2 production, chondrocytes were incubated for 6 hours in Ham's F12 medium, either alone or with IL 1 or PMA. […] In order to examine the expression of c-fos and c-jun, chondrocytes were incubated for 1 hour in the presence of IL-1, PMA or AA (3 μM). Chondrocytes were washed in PBS and the total RNA extracted as previously described (Cruz. et al, 1991, Biochem. J. 277, 327-330). RNA samples were run on formaldehyde agarose gels and transferred to nylon membrane for northern analysis using cDNA probes for c-fos and c-jun.
The RNA was extracted and examined by Northern blot analysis using cDNA probes for c-fos and collagenase.

The subject of series [2] is collagen induced arthritis. Put plainly: collagen induced arthritis, clinical arthritis score. The conditions noted are these: NAC 100 mg/kg/day s.c.; listed as NAC. The series is classed as in vivo, rats. Here is the method: Syngeneic 8 week old female Louvain (LOU) rats were fed with standard lab chow and housed in the vivarium at the University of California, Los Angeles. […] E. et al., J. Exp. Med., 146: 857-868, 1977). […] Rats with definite arthritis on Day 10 post immunization were randomized into two groups. Control rats (n=8) received only NAC at a dose of 100 mg/kg/day s.c. NAC was prepared as a 3% aqueous solution. […] Clinical arthritis severity of each limb was scored daily based on an objective integer scale of 0-4 (Trentham, D. E. et al., J. Exp. Med., 146: 857-868, 1977). A score of 0 indicated an unaffected limb, while a score of 4 represented fulminant erythema and edema involving distal digits. The arthritic index of a rat is defined as the sum of its four limb scores. Since CIA typically involves only the hind limbs, an arthritic index of 6 to 8 is considered severe arthritis.

The subject of a further series is tumor growth. Put plainly: tumor growth in vivo, orthovanadate and N-acetylcysteine (Example 7). More on the design: species or system mice. Conditions: combination with orthovanadate. Here is the method: Since N-acetylcysteine is converted to glutathione in cells, higher levels of glutathione may not only reduce orthovanadate induced toxicity but may also reduce tumor formation.
Twenty mice were injected subcutaneously with 2×10^5 cells on Day 1. At day 4, the mice were divided into four groups of five mice. Group one (control) received subcutaneous injections of 50 μl of water. Group two received daily intraperitoneal injections of 50 μl of 250 mM N-acetylcysteine. Group three received daily subcutaneous injections of 50 μl of 10 mg/ml of orthovanadate. Group four received daily intraperitoneal injections of 50 μl of […] N-acetylcysteine and 20 minutes later received 50 μl of subcutaneous injection of 50 μl of 10 mg/ml of orthovanadate. On day 10 the treatment was stopped. The animals were sacrificed on Day 13 and analyzed for tumor growth.

Another series deals with c-fos. Put plainly: TNFα and bFGF induced c-fos mRNA in chondrocytes (Northern blot). The series is classed as cell-based, bovine. Conditions: 30 mM, 2 hours preincubation. Here is the method: Chondrocyte cultures were stimulated with H2 O2 (100 μM) at different time points as indicated. […] Chondrocyte cultures were preincubated with NAC (30 mM) or Asc (100 μM) for 2 hours before the addition of bFGF (10 ng/ml) or TNFα (30 ng/ml) for 30 minutes. Both human recombinant TNFα and bFGF were dissolved in phosphate buffered saline with 0.1% bovine serum albumin. NAC and Asc were first dissolved in Ham's F12 medium containing 5% (v/v) fetal bovine serum, then neutralized with sodium hydroxide. Total RNA from bovine articular chondrocytes was isolated and the c-fos mRNA levels were determined by Northern blot analysis as described herein. The blots were subsequently stripped of DNA and re-probed with ^32 p-labelled rat β tubulin cDNA.
Chondrocyte cultures were pretreated with DPI (2 μM) for 30 minutes before the addition of TNFα (30 ng/ml) or bFGF (10 ng/ml) for 30 minutes. Measurements of c-fos and tubulin mRNA levels were as described in Example 11.

In series [3] the test system is collagenase. The experiment in a line: collagenase mRNA expression in chondrocytes (Northern blot). The series is classed as cell-based, bovine. Conditions: in the presence of IL 1; N-acetylcysteine 20 mM for 20 min.
Source text: as §1
Although IL 1 stimulated superoxide production, it was not known whether IL 1 induced fos and jun expression was dependent on the production of superoxides. In order to elucidate this possibility, the effect of DPI on fos and jun mRNA levels induced by IL 1 was investigated. RNA from chondrocytes treated with IL 1 in the presence and absence of DPI were analyzed by Northern blot analysis using either fos or collagenase cDNA probes. […] Similar data has been obtained for IL 1 induced jun expression. Furthermore, inhibition of fos and jun expression by DPI was sufficient to suppress IL 1 induced and constitutive collagenase expression.
Cells were also incubated as described above with 20 mM N-acetylcysteine for 20 min. and then incubated with IL 1 for an additional 1 or 12 hours. The RNA was extracted and examined by Northern blot analysis using cDNA probes for c-fos and collagenase. N-acetylcysteine which is converted to GSH intracellularly was also found to reduce the levels of fos and collagenase expression in response to IL 1 (FIG. 5). Presumably the higher intracellular levels of GSH reduced H2 O2 and superoxide levels and suppressed the induction of fos and collagenase expression.

“Also recorded” adds a separate entry of the source.

`CC(=O)N[C@@H](CS)C(=O)O` [N-acetylcysteine]: in the series on collagenase [1], the “production of metalloproteases, such as collagenase” value was “inhibit”. The “IL 1 induction of fos” value with fos is on record as “reduce”. Further, the “arthritis development / clinical severity, NAC alone” value in series [2] is listed as “developed severe arthritis; also recorded: no appreciable effect”. Further, the “toxic effects observed with orthovanadate alone” value in the series with tumor growth is given as “reduce the slight toxic effects”. The “inhibition of TNFα and bFGF induced c-fos mRNA levels” value in the series with c-fos is reported as “inhibit”. Also, the “IL 1 induction of collagenase” value in the series with collagenase [3] was “reduce”.

The record behind these values is US5871779A, “Treatment of arthropathies with vanadate compounds or analogues thereof” (Mount Sinai Hospital Corporation, priority 1996, dated 1999).
